Reference: article PMC7407272, “Induction of Lysosome Membrane Permeabilization as a Therapeutic Strategy to Target Pancreatic Cancer Stem Cells” (Cancers, 2020)

Experiments:
Assay in all cases: KINOMEscan
DLK = target: T1, DLK (Homo sapiens, UniProt Q12852); format: binding; details: read-out: % Ctrl
T1 construct: purchased DiscoveRx KINOMEscan

YES = target: T2, YES (Homo sapiens, UniProt P07947); format: binding; details: read-out: % Ctrl
T2 construct: purchased DiscoveRx KINOMEscan

CAMK2G = target: T3, CAMK2G (Homo sapiens, UniProt Q13555); format: binding; details: read-out: % Ctrl
T3 construct: purchased DiscoveRx KINOMEscan

PLK2 = target: T4, PLK2 (Homo sapiens, UniProt Q9NYY3); format: binding; details: read-out: % Ctrl
T4 construct: purchased DiscoveRx KINOMEscan

LOK = target: T5, LOK (Homo sapiens, UniProt O94804); format: binding; details: read-out: % Ctrl
T5 construct: purchased DiscoveRx KINOMEscan

PIK4CB = target: T6, PIK4CB (Homo sapiens, UniProt Q9UBF8); format: binding; details: read-out: % Ctrl
T6 construct: purchased DiscoveRx KINOMEscan

HIPK2 = target: T7, HIPK2 (Homo sapiens, UniProt Q9H2X6); format: binding; details: read-out: % Ctrl
T7 construct: purchased DiscoveRx KINOMEscan

PRKR = target: T8, PRKR (Homo sapiens, UniProt P19525); format: binding; details: read-out: % Ctrl
T8 construct: purchased DiscoveRx KINOMEscan
T8 sequence (P19525 whole entry): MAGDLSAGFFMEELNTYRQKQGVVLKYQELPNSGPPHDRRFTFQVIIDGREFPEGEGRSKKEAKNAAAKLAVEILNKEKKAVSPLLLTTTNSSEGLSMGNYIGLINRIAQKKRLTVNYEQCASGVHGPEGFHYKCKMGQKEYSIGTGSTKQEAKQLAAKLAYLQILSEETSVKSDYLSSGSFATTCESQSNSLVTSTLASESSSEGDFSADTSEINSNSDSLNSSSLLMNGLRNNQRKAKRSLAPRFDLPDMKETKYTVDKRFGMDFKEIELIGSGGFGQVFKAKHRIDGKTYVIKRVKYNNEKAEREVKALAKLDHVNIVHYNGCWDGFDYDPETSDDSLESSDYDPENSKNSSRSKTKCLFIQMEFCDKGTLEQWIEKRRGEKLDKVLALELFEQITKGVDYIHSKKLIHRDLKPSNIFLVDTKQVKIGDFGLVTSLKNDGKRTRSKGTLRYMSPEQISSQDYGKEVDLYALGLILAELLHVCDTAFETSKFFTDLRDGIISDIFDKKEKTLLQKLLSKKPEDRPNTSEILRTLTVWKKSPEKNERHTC

LYN = target: T9, LYN (Homo sapiens, UniProt P07948); format: binding; details: read-out: % Ctrl
T9 construct: purchased DiscoveRx KINOMEscan
T9 sequence (P07948 whole entry): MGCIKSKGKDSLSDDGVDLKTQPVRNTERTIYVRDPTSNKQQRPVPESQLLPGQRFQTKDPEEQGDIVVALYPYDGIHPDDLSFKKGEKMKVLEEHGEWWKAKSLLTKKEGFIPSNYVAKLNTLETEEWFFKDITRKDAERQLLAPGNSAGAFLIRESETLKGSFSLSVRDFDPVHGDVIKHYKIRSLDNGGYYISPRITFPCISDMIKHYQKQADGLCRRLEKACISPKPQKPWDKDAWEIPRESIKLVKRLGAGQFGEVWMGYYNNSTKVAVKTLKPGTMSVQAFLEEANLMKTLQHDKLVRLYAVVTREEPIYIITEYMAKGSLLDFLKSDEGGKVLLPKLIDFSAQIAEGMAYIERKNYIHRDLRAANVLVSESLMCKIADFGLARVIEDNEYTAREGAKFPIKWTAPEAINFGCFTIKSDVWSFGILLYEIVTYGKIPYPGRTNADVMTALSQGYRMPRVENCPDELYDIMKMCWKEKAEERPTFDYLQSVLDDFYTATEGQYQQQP

DCAMKL2 = target: T10, DCAMKL2 (Homo sapiens, UniProt Q8N568); format: binding; details: read-out: % Ctrl
T10 construct: purchased DiscoveRx KINOMEscan

PIM1 = PIM1 (Homo sapiens, UniProt P11309); format: binding; design: purchased DiscoveRx KINOMEscan; details: read-out: % Ctrl
MARK3 = target: T11, MARK3 (Homo sapiens, UniProt P27448); format: binding; details: read-out: % Ctrl
T11 construct: purchased DiscoveRx KINOMEscan

ASK2 = target: T12, ASK2 (Homo sapiens, UniProt O95382); format: binding; details: read-out: % Ctrl
T12 construct: purchased DiscoveRx KINOMEscan

SNARK = target: T13, SNARK (Homo sapiens, UniProt Q9H093); format: binding; details: read-out: % Ctrl
T13 construct: purchased DiscoveRx KINOMEscan

RPS6KA4(KD2-C-t.) = target: T14, RPS6KA4(KD2-C-t.) (Homo sapiens, UniProt O75676); format: binding; details: read-out: % Ctrl
T14 construct: RPS6KA4(KD2-C-t.); purchased DiscoveRx KINOMEscan

IKK-alpha = target: T15, IKK-alpha (Homo sapiens, UniProt O15111); format: binding; details: read-out: % Ctrl
T15 construct: purchased DiscoveRx KINOMEscan

ABL1-P = target: T16, ABL1-P (Homo sapiens, UniProt P00519); format: binding; details: read-out: % Ctrl
T16 construct: purchased DiscoveRx KINOMEscan

CDKL5 = target: T17, CDKL5 (Homo sapiens, UniProt O76039); format: binding; details: read-out: % Ctrl
T17 construct: purchased DiscoveRx KINOMEscan

RIPK4 = target: T18, RIPK4 (Homo sapiens, UniProt P57078); format: binding; details: read-out: % Ctrl
T18 construct: purchased DiscoveRx KINOMEscan

TRPM6 = target: T19, TRPM6 (Homo sapiens, UniProt Q9BX84); format: binding; details: read-out: % Ctrl
T19 construct: purchased DiscoveRx KINOMEscan

MYLK2 = target: T20, MYLK2 (Homo sapiens, UniProt Q9H1R3); format: binding; details: read-out: % Ctrl
T20 construct: purchased DiscoveRx KINOMEscan

PRKD2 = target: T21, PRKD2 (Homo sapiens, UniProt Q9BZL6); format: binding; details: read-out: % Ctrl
T21 construct: purchased DiscoveRx KINOMEscan

TSSK3 = target: T22, TSSK3 (Homo sapiens, UniProt Q96PN8); format: binding; details: read-out: % Ctrl
T22 construct: purchased DiscoveRx KINOMEscan
T22 sequence (Q96PN8 whole entry): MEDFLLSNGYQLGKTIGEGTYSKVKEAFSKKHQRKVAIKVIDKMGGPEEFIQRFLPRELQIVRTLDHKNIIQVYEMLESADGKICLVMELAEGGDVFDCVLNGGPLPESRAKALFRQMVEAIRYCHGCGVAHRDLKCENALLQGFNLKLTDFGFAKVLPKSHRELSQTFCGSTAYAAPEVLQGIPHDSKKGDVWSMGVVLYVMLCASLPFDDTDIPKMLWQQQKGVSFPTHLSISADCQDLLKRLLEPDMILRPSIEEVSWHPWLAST

ACVR1B = target: T23, ACVR1B (Homo sapiens, UniProt P36896); format: binding; details: read-out: % Ctrl
T23 construct: purchased DiscoveRx KINOMEscan

HASPIN = target: T24, HASPIN (Homo sapiens, UniProt Q8TF76); format: binding; design: purchased DiscoveRx KINOMEscan; details: read-out: % Ctrl
T24 sequence (Q8TF76 1-798): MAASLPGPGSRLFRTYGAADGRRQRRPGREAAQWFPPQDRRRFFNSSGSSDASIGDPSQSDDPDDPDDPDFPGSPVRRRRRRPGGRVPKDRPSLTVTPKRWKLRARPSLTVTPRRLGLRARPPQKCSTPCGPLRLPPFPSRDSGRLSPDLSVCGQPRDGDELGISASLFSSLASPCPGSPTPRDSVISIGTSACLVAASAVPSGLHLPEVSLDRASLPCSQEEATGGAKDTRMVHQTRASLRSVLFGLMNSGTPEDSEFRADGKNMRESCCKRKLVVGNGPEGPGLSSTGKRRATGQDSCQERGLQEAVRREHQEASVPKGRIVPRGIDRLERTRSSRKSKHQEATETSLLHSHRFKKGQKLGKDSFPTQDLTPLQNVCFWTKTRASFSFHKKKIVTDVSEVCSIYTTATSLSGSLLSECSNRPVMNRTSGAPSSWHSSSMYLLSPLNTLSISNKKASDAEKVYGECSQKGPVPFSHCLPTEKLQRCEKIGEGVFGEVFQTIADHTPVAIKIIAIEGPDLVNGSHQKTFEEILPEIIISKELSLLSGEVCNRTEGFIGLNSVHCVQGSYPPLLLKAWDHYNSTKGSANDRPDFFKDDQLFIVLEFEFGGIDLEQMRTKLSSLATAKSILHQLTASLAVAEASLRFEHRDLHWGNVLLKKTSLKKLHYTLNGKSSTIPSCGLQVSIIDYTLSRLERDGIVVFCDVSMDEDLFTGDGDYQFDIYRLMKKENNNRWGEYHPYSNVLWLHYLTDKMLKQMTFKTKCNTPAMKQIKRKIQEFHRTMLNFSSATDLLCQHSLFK

TRKA = target: T25, TRKA (Homo sapiens, UniProt P04629); format: binding; details: read-out: % Ctrl
T25 construct: purchased DiscoveRx KINOMEscan

RIPK2 = target: T26, RIPK2 (Homo sapiens, UniProt O43353); format: binding; details: read-out: % Ctrl
T26 construct: purchased DiscoveRx KINOMEscan
T26 sequence (O43353 whole entry): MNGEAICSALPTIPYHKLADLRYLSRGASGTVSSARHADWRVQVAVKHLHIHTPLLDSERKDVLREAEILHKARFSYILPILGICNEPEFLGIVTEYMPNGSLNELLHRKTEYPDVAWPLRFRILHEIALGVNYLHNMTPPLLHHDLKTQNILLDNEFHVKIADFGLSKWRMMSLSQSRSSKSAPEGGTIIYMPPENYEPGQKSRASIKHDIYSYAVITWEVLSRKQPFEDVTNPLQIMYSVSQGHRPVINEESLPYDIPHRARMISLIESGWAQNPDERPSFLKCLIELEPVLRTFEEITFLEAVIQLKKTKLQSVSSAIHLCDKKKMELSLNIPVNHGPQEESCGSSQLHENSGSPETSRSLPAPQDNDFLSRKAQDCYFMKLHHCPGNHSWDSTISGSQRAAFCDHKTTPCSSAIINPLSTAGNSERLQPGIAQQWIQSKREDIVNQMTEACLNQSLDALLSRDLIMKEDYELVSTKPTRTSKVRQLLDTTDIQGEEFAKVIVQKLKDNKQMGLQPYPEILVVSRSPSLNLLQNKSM

PIK3CA(E545A) = target: T27, PIK3CA(E545A) (Homo sapiens, UniProt P42336, E545A); format: binding; details: read-out: % Ctrl
T27 construct: purchased DiscoveRx KINOMEscan
T27 sequence (P42336 whole entry E545A): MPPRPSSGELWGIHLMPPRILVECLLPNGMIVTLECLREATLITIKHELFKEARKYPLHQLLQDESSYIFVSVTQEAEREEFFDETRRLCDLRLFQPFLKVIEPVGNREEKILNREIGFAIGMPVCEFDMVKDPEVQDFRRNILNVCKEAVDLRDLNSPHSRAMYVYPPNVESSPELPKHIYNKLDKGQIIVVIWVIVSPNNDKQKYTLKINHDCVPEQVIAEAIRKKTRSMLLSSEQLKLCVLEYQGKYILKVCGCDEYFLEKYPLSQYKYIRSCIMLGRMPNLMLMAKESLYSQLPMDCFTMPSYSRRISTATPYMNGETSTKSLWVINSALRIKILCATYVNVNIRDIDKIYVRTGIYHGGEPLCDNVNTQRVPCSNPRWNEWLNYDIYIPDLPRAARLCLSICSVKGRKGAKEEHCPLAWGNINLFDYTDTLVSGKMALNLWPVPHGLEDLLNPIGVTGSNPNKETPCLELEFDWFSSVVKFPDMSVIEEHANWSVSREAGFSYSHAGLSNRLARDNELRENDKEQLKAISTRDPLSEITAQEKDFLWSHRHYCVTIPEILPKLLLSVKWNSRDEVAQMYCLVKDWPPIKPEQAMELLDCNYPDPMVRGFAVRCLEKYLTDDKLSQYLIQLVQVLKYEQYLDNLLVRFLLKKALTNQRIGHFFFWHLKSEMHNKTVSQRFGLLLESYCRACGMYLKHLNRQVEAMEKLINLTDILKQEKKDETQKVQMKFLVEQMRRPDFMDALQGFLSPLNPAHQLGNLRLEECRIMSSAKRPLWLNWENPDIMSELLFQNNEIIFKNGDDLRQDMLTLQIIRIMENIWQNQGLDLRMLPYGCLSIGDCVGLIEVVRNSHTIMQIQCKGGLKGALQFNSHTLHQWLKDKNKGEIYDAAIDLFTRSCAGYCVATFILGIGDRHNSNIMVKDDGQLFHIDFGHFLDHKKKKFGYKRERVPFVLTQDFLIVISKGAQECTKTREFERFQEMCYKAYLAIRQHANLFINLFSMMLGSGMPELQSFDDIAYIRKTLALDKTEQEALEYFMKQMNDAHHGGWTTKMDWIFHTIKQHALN

CLK3 = target: T28, CLK3 (Homo sapiens, UniProt P49761); format: binding; details: read-out: % Ctrl
T28 construct: purchased DiscoveRx KINOMEscan

VPS34 = target: T29, VPS34 (Homo sapiens, UniProt Q8NEB9); format: binding; details: read-out: % Ctrl
T29 construct: purchased DiscoveRx KINOMEscan
T29 sequence (Q8NEB9 whole entry): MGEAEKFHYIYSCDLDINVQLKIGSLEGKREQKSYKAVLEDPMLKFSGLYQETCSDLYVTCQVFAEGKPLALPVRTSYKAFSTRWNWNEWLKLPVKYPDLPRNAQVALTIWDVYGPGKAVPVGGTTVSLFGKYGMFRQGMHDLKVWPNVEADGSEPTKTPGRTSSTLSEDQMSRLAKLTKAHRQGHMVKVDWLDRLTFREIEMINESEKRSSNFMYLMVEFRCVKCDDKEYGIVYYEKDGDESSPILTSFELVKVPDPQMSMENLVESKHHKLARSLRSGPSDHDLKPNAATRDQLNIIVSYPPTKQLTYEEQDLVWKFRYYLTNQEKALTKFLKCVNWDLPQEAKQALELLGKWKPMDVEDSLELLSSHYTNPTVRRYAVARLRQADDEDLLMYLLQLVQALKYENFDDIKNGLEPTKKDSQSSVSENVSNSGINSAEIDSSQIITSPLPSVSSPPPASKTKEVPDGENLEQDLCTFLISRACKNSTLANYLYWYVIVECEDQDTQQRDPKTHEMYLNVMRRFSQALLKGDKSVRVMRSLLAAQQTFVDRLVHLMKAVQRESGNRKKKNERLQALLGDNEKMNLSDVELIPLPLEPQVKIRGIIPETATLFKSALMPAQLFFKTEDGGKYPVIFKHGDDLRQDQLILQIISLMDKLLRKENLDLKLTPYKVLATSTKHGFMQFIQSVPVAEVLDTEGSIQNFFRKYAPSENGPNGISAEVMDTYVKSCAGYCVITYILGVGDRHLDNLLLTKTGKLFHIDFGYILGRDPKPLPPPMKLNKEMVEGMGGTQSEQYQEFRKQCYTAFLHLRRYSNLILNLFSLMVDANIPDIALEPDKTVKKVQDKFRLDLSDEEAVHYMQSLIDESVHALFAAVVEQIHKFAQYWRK

FLT3(ITD,D835V) = format: binding, human; details: 1 µM
ICK = target: T30, ICK (Homo sapiens, UniProt Q9UPZ9); format: binding; details: read-out: % Ctrl
T30 construct: purchased DiscoveRx KINOMEscan

LKB1 = target: T31, LKB1 (Homo sapiens, UniProt Q15831); format: binding; details: read-out: % Ctrl
T31 construct: purchased DiscoveRx KINOMEscan
T31 sequence (Q15831 whole entry): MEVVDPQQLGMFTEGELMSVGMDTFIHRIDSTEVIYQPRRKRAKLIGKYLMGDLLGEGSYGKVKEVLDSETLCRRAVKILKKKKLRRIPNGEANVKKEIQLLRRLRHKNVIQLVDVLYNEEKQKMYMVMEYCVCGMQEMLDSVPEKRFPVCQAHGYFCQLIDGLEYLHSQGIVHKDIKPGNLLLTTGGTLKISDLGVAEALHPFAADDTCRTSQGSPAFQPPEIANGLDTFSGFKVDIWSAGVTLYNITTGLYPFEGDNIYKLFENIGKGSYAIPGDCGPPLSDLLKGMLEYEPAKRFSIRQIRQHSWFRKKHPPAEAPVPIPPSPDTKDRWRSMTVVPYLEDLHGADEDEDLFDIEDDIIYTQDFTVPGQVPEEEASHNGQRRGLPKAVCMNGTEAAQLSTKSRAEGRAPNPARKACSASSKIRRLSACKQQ

T2 sequence (P07947 whole entry): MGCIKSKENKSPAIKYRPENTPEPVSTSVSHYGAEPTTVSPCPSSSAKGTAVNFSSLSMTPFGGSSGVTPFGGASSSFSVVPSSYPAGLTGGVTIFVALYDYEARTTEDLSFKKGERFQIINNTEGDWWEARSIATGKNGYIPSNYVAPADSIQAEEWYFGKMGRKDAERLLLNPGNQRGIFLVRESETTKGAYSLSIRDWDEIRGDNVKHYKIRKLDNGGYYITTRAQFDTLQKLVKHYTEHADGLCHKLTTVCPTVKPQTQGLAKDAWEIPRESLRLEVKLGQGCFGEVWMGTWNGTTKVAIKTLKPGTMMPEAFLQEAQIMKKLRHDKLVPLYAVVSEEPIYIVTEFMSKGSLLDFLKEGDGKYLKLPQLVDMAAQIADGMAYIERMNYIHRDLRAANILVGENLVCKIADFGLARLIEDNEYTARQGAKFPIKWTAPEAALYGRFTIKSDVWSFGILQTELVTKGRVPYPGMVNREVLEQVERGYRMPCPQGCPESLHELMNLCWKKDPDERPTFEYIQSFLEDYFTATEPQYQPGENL

CN1CCC(CNc2ccc3ncc(C(=O)Nc4cccc(OC(F)(F)F)c4)n3n2)CC1 [Cpd 2]
remaining binding at 1 µM (DLK): 100%
remaining binding at 1 µM (YES): 95%
remaining binding at 1 µM (CAMK2G): 100%
remaining binding at 1 µM (PLK2): 91%
remaining binding at 1 µM (LOK): 90%
remaining binding at 1 µM (PIK4CB): 99%
remaining binding at 1 µM (HIPK2): 68%
remaining binding at 1 µM (PRKR): 83%
remaining binding at 1 µM (LYN): 98%
remaining binding at 1 µM (DCAMKL2): 97%
remaining binding at 1 µM (PIM1): 5%
remaining binding at 1 µM (MARK3): 100%
remaining binding at 1 µM (ASK2): 99%
remaining binding at 1 µM (SNARK): 89%
remaining binding at 1 µM (RPS6KA4(KD2-C-t.)): 100%
remaining binding at 1 µM (IKK-alpha): 97%
remaining binding at 1 µM (ABL1-P): 95%
remaining binding at 1 µM (CDKL5): 100%
remaining binding at 1 µM (RIPK4): 96%
remaining binding at 1 µM (TRPM6): 100%
remaining binding at 1 µM (MYLK2): 97%
remaining binding at 1 µM (PRKD2): 87%
remaining binding at 1 µM (TSSK3): 95%
remaining binding at 1 µM (ACVR1B): 97%
remaining binding at 1 µM (HASPIN): 30%
remaining binding at 1 µM (TRKA): 82%
remaining binding at 1 µM (RIPK2): 100%
remaining binding at 1 µM (PIK3CA(E545A)): 100%
remaining binding at 1 µM (CLK3): 93%
remaining binding at 1 µM (VPS34): 75%
% Ctrl (FLT3(ITD,D835V)): 9.1%
remaining binding at 1 µM (ICK): 93%
remaining binding at 1 µM (LKB1): 96%
